In ChEMBL document CHEMBL1201862, “PubChem BioAssay data set” (2004):
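Method: 48-hour compound exposure of cells in 96-well plates, five concentrations, linear interpolation of endpoints. GI50 = concentration required for 50% inhibition of growth.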 Activity calls are given as the source filed them. No stated cut-off is given here; in the data, active = GI50 up to about 1.1 µM and inactive = higher.

Key:
Assay in all cases: DTP human tumour cell line panel, 48 h
[1] = system: CCRF-CEM
[2] = system: UO-31
[3] = system: HOP-92
[4] = system: OVCAR-4
[5] = system: M14
[6] = system: HL-60
[7] = system: UACC-257
[8] = system: SNB-19
[9] = system: HOP-62
[10] = system: KM12
[11] = system: A549
[12] = system: SK-OV-3
[13] = system: IGROV-1
[14] = system: CAKI-1
[15] = system: TK-10
[16] = system: SW-620
[17] = system: DU-145
[18] = system: OVCAR-8
[19] = system: Malme-3M
[20] = system: NCI/ADR-RES

Measured: GI50

S=C1NN=C2C(=C3CCCC4C5CCCCC5N2C34)N1 (stereo not given)
inactive: [1] 37.2 µM | [2] > 100 µM | [3] > 100 µM | [4] > 100 µM | [5] > 100 µM | [6] > 100 µM | [7] > 100 µM | [8] > 100 µM | [9] > 100 µM | [10] > 100 µM | [11] > 100 µM | [12] > 100 µM | [13] > 100 µM | [14] > 100 µM | [15] > 100 µM | [16] > 100 µM | [17] > 100 µM | [18] > 100 µM | [19] > 100 µM | [20] > 100 µM
